From patent US12152031B2, “Biodefense agents” (priority 2018, dated 2024)
In brackets after ≈: the same amount, converted by molar mass.

Columns and labels:
Type in all cases: cell-based
[1] = system: Bacillus anthracis; experiment: microbe, parasite or virus in culture; conditions: for MIC: read-out: MIC range
[2] = system: Yersinia pestis; experiment: microbe, parasite or virus in culture; conditions: for MIC: read-out: MIC range
[3] = system: Francisella tularensis; experiment: microbe, parasite or virus in culture; conditions: for MIC: read-out: MIC range
[4] = system: Burkholderia mallei; experiment: microbe, parasite or virus in culture; conditions: for MIC: read-out: MIC range
[5] = system: Burkholderia pseudomallei; experiment: microbe, parasite or virus in culture; conditions: for MIC50 / MIC90 / MIC: Burkholderia pseudomallei; for MIC: read-out: MIC range
[6] = system: Enterobacteriaceae
[7] = system: E. coli DH10B; experiment: microbe, parasite or virus in culture; conditions: Escherichia coli
[8] = system: E. coli DH10B mcr-1 transformant; experiment: microbe, parasite or virus in culture; conditions: Escherichia coli
[9] = system: P. aeruginosa; experiment: microbe, parasite or virus in culture; conditions: Pseudomonas aeruginosa, read-out: MICs

SMILES	MIC50 [1] [mg/L]	MIC90 [1] [mg/L]	MIC [1] [mg/L]	MIC50 [2] [mg/L]	MIC90 [2] [mg/L]	MIC [2] [mg/L]	MIC50 [3] [mg/L]	MIC90 [3] [mg/L]	MIC [3] [mg/L]	MIC50 [4] [mg/L]	MIC90 [4] [mg/L]	MIC [4] [mg/L]	MIC50 [5] [mg/L]	MIC90 [5] [mg/L]	MIC [5] [mg/L]	peak of unimodal MIC distribution [6] [mg/L]	MIC [7] [mg/L]	MIC [8] [mg/L]	MIC [9] [mg/L]	MIC range [5] [mg/L]
CC(=N)NCC[C@@H]1CCC[C@@H](c2ccc(-n3cc4cc(-c5cc(CCC[C@H](C)N)cc(Cl)c5F)[nH]c4nc3=O)cc2)N1CCCF [RX-D3]	0.12 (≈ 0.184 µM)	0.12 (≈ 0.184 µM)	0.03 to 0.25 (≈ 0.046 to 0.383 µM)	0.12 (≈ 0.184 µM)	0.25 (≈ 0.383 µM)	0.06 to 0.5 (≈ 0.092 to 0.767 µM)	0.12 (≈ 0.184 µM)	0.25 (≈ 0.383 µM)	0.015 to 2 (≈ 0.023 to 3.07 µM)	0.12 (≈ 0.184 µM)	0.25 (≈ 0.383 µM)	0.03 to 0.25 (≈ 0.046 to 0.383 µM)	2 (≈ 3.07 µM)	4 (≈ 6.13 µM)	0.5 to 8 (≈ 0.767 to 12.3 µM)	–	–	–	–	–
CSc1cc(-n2cc3cc(-c4cc(CCC[C@@H](N)C5CC5)cc(Cl)c4F)[nH]c3nc2=O)ccc1[C@@H]1CCC[C@@H](CCNC(C)=N)N1 [RX-D1]	0.06 (≈ 0.0903 µM)	0.06 (≈ 0.0903 µM)	0.008 to 0.12 (≈ 0.012 to 0.181 µM)	0.12 (≈ 0.181 µM)	0.25 (≈ 0.376 µM)	0.008 to 0.25 (≈ 0.012 to 0.376 µM)	0.12 (≈ 0.181 µM)	0.25 (≈ 0.376 µM)	0.06 to 0.5 (≈ 0.0903 to 0.753 µM)	0.12 (≈ 0.181 µM)	0.12 (≈ 0.181 µM)	0.06 to 0.25 (≈ 0.0903 to 0.376 µM)	1 (≈ 1.51 µM)	4 (≈ 6.02 µM)	0.5 to 4 (≈ 0.753 to 6.02 µM)	–	–	–	–	–
C=C[C@H](N)CCCc1cc(Cl)c(F)c(-c2cc3cn(-c4ccc([C@@H]5CCC[C@@H](CCNC(C)=N)N5)c(SC)c4)c(=O)nc3[nH]2)c1 [RX-D7]	≤ 0.008	0.03 (≈ 0.0461 µM)	0.008 to 0.06 (≈ 0.0123 to 0.0923 µM)	0.25 (≈ 0.384 µM)	0.5 (≈ 0.769 µM)	0.03 to 1 (≈ 0.0461 to 1.54 µM)	0.12 (≈ 0.185 µM)	0.25 (≈ 0.384 µM)	0.06 to 0.5 (≈ 0.0923 to 0.769 µM)	0.25 (≈ 0.384 µM)	0.25 (≈ 0.384 µM)	0.06 to 0.5 (≈ 0.0923 to 0.769 µM)	4 (≈ 6.15 µM)	8 (≈ 12.3 µM)	–	–	–	–	–	–
C[C@H](N)CCCc1cc(Cl)c(F)c(-c2cc3cn(-c4ccc([C@@H]5CCC[C@@H](CCSC(=N)N)N5)cc4)c(=O)nc3[nH]2)c1 [RX-D4]	0.06 (≈ 0.0983 µM)	0.12 (≈ 0.197 µM)	0.015 to 0.12 (≈ 0.0246 to 0.197 µM)	0.12 (≈ 0.197 µM)	0.25 (≈ 0.41 µM)	0.004 to 0.5 (≈ 0.00656 to 0.819 µM)	0.03 (≈ 0.0492 µM)	0.06 (≈ 0.0983 µM)	0.004 to 0.5 (≈ 0.00656 to 0.819 µM)	0.12 (≈ 0.197 µM)	0.12 (≈ 0.197 µM)	0.03 to 0.12 (≈ 0.0492 to 0.197 µM)	1 (≈ 1.64 µM)	4 (≈ 6.56 µM)	0.25 to 8 (≈ 0.41 to 13.1 µM)	–	–	–	–	–
CC(=N)NCC[C@@H]1CCC[C@@H](c2ccc(-n3cc4cc(-c5cc(CCC[C@@H](N)CO)cc(Cl)c5F)[nH]c4nc3=O)cc2F)N1 [RX-04C, N-(2-((2S,6S)-6-(4-(6-(5-((R)-4-amino-5-hydroxypentyl)-3-chloro-2-fluorophenyl)-2-oxo-2,7-dihydro-3H-pyrrolo[2,3-d]pyrimidin-3-yl)-2-fluorophenyl)piperidin-2-yl)ethyl)acetimidamide]	–	–	–	–	–	–	–	–	–	–	–	–	–	–	–	2	0.5 (≈ 0.799 µM)	0.5 (≈ 0.799 µM)	≥ 16	–
C=CCN1[C@H](CCNC(C)=N)CCC[C@H]1c1ccc(-n2cc3cc(-c4cc(CCC[C@H](C)N)cc(Cl)c4F)[nH]c3nc2=O)cc1 [RX-D10]	0.12 (≈ 0.19 µM)	0.25 (≈ 0.395 µM)	0.008 to 0.25 (≈ 0.0127 to 0.395 µM)	0.12 (≈ 0.19 µM)	0.5 (≈ 0.791 µM)	0.03 to 0.5 (≈ 0.0475 to 0.791 µM)	0.12 (≈ 0.19 µM)	0.5 (≈ 0.791 µM)	0.03 to 2 (≈ 0.0475 to 3.16 µM)	0.12 (≈ 0.19 µM)	0.25 (≈ 0.395 µM)	0.06 to 0.25 (≈ 0.0949 to 0.395 µM)	2 (≈ 3.16 µM)	4 (≈ 6.33 µM)	0.25 to 8 (≈ 0.395 to 12.7 µM)	–	–	–	–	–
CC(=N)NCC[C@@H]1CCC[C@@H](c2ccc(-n3cc4cc(-c5cc(CCC[C@H](C)N)cc(Cl)c5F)[nH]c4nc3=O)cc2C)N1 [RX-D8]	≤ 0.008	≤ 0.008	0.008 to 0.015 (≈ 0.0132 to 0.0247 µM)	0.25 (≈ 0.412 µM)	0.5 (≈ 0.825 µM)	0.06 to 0.5 (≈ 0.099 to 0.825 µM)	0.03 (≈ 0.0495 µM)	0.06 (≈ 0.099 µM)	0.004 to 0.12 (≈ 0.0066 to 0.198 µM)	0.06 (≈ 0.099 µM)	0.12 (≈ 0.198 µM)	0.03 to 0.25 (≈ 0.0495 to 0.412 µM)	8 (≈ 13.2 µM)	> 8	–	–	–	–	–	–
C[C@H](N)CCCc1cc(Cl)c(F)c(-c2cc3cn(-c4ccc([C@@H]5CCC[C@@H](CCSC(=N)N)N5)c(F)c4)c(=O)nc3[nH]2)c1 [RX-D11]	0.12 (≈ 0.191 µM)	0.25 (≈ 0.398 µM)	0.008 to 0.5 (≈ 0.0127 to 0.796 µM)	0.12 (≈ 0.191 µM)	0.25 (≈ 0.398 µM)	0.004 to 0.25 (≈ 0.00637 to 0.398 µM)	0.06 (≈ 0.0955 µM)	0.12 (≈ 0.191 µM)	0.008 to 1 (≈ 0.0127 to 1.59 µM)	0.06 (≈ 0.0955 µM)	0.12 (≈ 0.191 µM)	0.03 to 0.25 (≈ 0.0478 to 0.398 µM)	1 (≈ 1.59 µM)	2 (≈ 3.18 µM)	0.25 to 8 (≈ 0.398 to 12.7 µM)	–	–	–	–	–
CC(=N)NCC[C@@H]1CCC[C@@H](c2ccc(-n3cc4cc(-c5cc(CCC[C@H](C)N)cc(Cl)c5F)[nH]c4nc3=O)cc2)N1CCCO [RX-D2]	0.06 (≈ 0.0923 µM)	0.12 (≈ 0.185 µM)	0.03 to 0.12 (≈ 0.0461 to 0.185 µM)	0.25 (≈ 0.384 µM)	1 (≈ 1.54 µM)	0.03 to 1 (≈ 0.0461 to 1.54 µM)	0.12 (≈ 0.185 µM)	0.25 (≈ 0.384 µM)	0.015 to 1 (≈ 0.0231 to 1.54 µM)	0.12 (≈ 0.185 µM)	0.25 (≈ 0.384 µM)	0.06 to 0.5 (≈ 0.0923 to 0.769 µM)	> 8	> 8	–	–	–	–	–	–
CC(C)(O/N=C(\C(=O)N[C@@H]1C(=O)N2C(C(=O)[O-])=C(C[n+]3ccccc3)CS[C@H]12)c1csc(N)n1)C(=O)O [Ceftazidime, ceftazidime, reference compound]	–	–	–	–	–	–	–	–	–	–	–	–	1 (≈ 1.83 µM)	1 (≈ 1.83 µM)	–	–	–	–	–	≤0.03 to 32
CCCN1[C@H](CCNC(C)=N)CCC[C@H]1c1ccc(-n2cc3cc(-c4cc(CCC[C@H](C)N)cc(Cl)c4F)[nH]c3nc2=O)cc1 [RX-D5]	0.06 (≈ 0.0946 µM)	0.06 (≈ 0.0946 µM)	0.015 to 0.12 (≈ 0.0237 to 0.189 µM)	0.12 (≈ 0.189 µM)	0.25 (≈ 0.394 µM)	0.03 to 0.5 (≈ 0.0473 to 0.788 µM)	0.06 (≈ 0.0946 µM)	0.12 (≈ 0.189 µM)	0.004 to 1 (≈ 0.00631 to 1.58 µM)	0.06 (≈ 0.0946 µM)	0.12 (≈ 0.189 µM)	0.03 to 0.12 (≈ 0.0473 to 0.189 µM)	4 (≈ 6.31 µM)	8 (≈ 12.6 µM)	–	–	–	–	–	–
CSc1cc(-n2cc3cc(-c4cc(CCC[C@@H](N)C5CC5)cc(Cl)c4F)[nH]c3nc2=O)ccc1[C@@H]1CCC[C@@H](CCNC(C)=N)N1 [RX-04B, N-(2-((2S,6S)-6-(4-(6-(5-((R)-4-amino-4-cyclopropylbutyl)-3-chloro-2-fluorophenyl)-2-oxo-2,7-dihydro-3H-pyrrolo[2,3-d]pyrimidin-3-yl)-2-(methylthio)phenyl)piperidin-2-yl)ethyl)acetimidamide]	–	–	–	–	–	–	–	–	–	–	–	–	–	–	–	1	0.5 (≈ 0.753 µM)	0.5 (≈ 0.753 µM)	–	–
CC[C@H]1OC(=O)[C@H](C)[C@@H](O[C@H]2C[C@@](C)(OC)[C@@H](O)[C@H](C)O2)[C@H](C)[C@@H](O[C@@H]2O[C@H](C)C[C@H](N(C)C)[C@H]2O)[C@](C)(O)C[C@@H](C)CN(C)[C@H](C)[C@@H](O)[C@]1(C)O [Azithromycin, azithromycin, reference compound]	–	–	–	–	–	–	–	–	–	0.5 (≈ 0.668 µM)	1 (≈ 1.34 µM)	0.06 to 1 (≈ 0.0801 to 1.34 µM)	–	–	–	–	–	–	–	–
C[C@H](N)CCCc1cc(Cl)c(F)c(-c2cc3cn(-c4ccc([C@@H]5CCC[C@@H](CCNC(=N)CN)N5)cc4)c(=O)nc3[nH]2)c1 [RX-D6]	0.12 (≈ 0.198 µM)	0.25 (≈ 0.412 µM)	0.06 to 0.25 (≈ 0.0988 to 0.412 µM)	0.5 (≈ 0.823 µM)	1 (≈ 1.65 µM)	0.015 to 1 (≈ 0.0247 to 1.65 µM)	0.06 (≈ 0.0988 µM)	0.25 (≈ 0.412 µM)	0.03 to 0.5 (≈ 0.0494 to 0.823 µM)	0.12 (≈ 0.198 µM)	0.25 (≈ 0.412 µM)	0.12 to 0.25 (≈ 0.198 to 0.412 µM)	> 8	> 8	–	–	–	–	–	–
CC(=N)NCC[C@@H]1CSC[C@@H](c2ccc(-n3cc4cc(-c5cc(CCC[C@H](C)N)cc(Cl)c5F)[nH]c4nc3=O)cc2)N1 [RX-D9]	0.06 (≈ 0.0983 µM)	0.12 (≈ 0.197 µM)	0.008 to 0.12 (≈ 0.0131 to 0.197 µM)	0.12 (≈ 0.197 µM)	0.25 (≈ 0.41 µM)	0.06 to 0.5 (≈ 0.0983 to 0.819 µM)	0.12 (≈ 0.197 µM)	0.25 (≈ 0.41 µM)	0.03 to 2 (≈ 0.0492 to 3.28 µM)	0.12 (≈ 0.197 µM)	0.25 (≈ 0.41 µM)	0.03 to 0.5 (≈ 0.0492 to 0.819 µM)	2 (≈ 3.28 µM)	4 (≈ 6.56 µM)	0.5 to 4 (≈ 0.819 to 6.56 µM)	–	–	–	–	–
C[C@H](N)CCCc1cc(Cl)c(F)c(-c2cc3cn(-c4ccc([C@H]5CC[C@H](CCNC(=N)N)N5)cc4)c(=O)nc3[nH]2)c1 [RX-D13]	0.06 (≈ 0.104 µM)	0.06 (≈ 0.104 µM)	0.008 to 0.12 (≈ 0.0138 to 0.207 µM)	0.06 (≈ 0.104 µM)	0.25 (≈ 0.432 µM)	0.03 to 0.25 (≈ 0.0518 to 0.432 µM)	0.015 (≈ 0.0259 µM)	0.06 (≈ 0.104 µM)	0.004 to 0.12 (≈ 0.00691 to 0.207 µM)	0.06 (≈ 0.104 µM)	0.12 (≈ 0.207 µM)	0.008 to 0.12 (≈ 0.0138 to 0.207 µM)	1 (≈ 1.73 µM)	4 (≈ 6.91 µM)	0.25 to 8 (≈ 0.432 to 13.8 µM)	–	–	–	–	–
